ChEMBL document CHEMBL3885881, “DrugMatrix”

Species on record: Rattus norvegicus
Assay: DrugMatrix - Regimen: Daily Repeat
Assay type: toxicity, organism-based, Sprague-Dawley
Design: regimen Daily Repeat, gender Male, age 6-8 weeks
Settings: in vivo, po, route oral GAVAGE, vehicle .5 % CMC; for BASOPHIL / EOSINOPHIL / ERYTHROCYTE COUNT / HEMATOCRIT / HEMOGLOBIN / LEUKOCYTE COUNT / LYMPHOCYTE / MEAN CORPUSCULAR HEMOGLOBIN / MEAN CORPUSCULAR HEMOGLOBIN CONCENTRATION / MEAN CORPUSCULAR VOLUME / MONOCYTE / NEUTROPHIL / PLATELET COUNT: tissue Blood; for ALANINE AMINOTRANSFERASE / ALBUMIN / ALKALINE PHOSPHATASE / ASPARTATE AMINOTRANSFERASE / BLOOD UREA NITROGEN / CHLORIDE / CHOLESTEROL / CREATINE PHOSPHOKINASE / CREATININE / GLUCOSE / PHOSPHORUS / POTASSIUM / SODIUM / TOTAL BILIRUBIN / TOTAL PROTEIN: tissue Plasma
[1] = 0 mg/kg, 72 h, dose level Control, time 3 day
[2] = 0 mg/kg, 120 h, dose level Control, time 5 day
[3] = 25 mg/kg, 72 h, dose level Low, time 3 day
[4] = 25 mg/kg, 120 h, dose level Low, time 5 day

Structure (SMILES): N=C(N)NCCN1CCCCCCC1 [GUANETHIDINE]
- BASOPHIL [1]: 0%
- EOSINOPHIL [1]: 0%
- ERYTHROCYTE COUNT [1]: 6.34 x10E6/uL
- HEMATOCRIT [1]: 37.62%
- HEMOGLOBIN [1]: 14.82 G/DL
- LEUKOCYTE COUNT [1]: 11.18 x10E3/uL
- LYMPHOCYTE [1]: 87.5%
- MEAN CORPUSCULAR HEMOGLOBIN [1]: 23.48 pg
- MEAN CORPUSCULAR HEMOGLOBIN CONCENTRATION [1]: 39.5 G/DL
- MEAN CORPUSCULAR VOLUME [1]: 59.45 fL
- MONOCYTE [1]: 1.67%
- NEUTROPHIL [1]: 10.83%
- PLATELET COUNT [1]: 1074.83 x10E3/uL
- ALANINE AMINOTRANSFERASE [1]: 36.5 u/L
- ALBUMIN [1]: 3.9 G/DL
- ALKALINE PHOSPHATASE [1]: 370.17 u/L
- ASPARTATE AMINOTRANSFERASE [1]: 63.17 u/L
- BLOOD UREA NITROGEN [1]: 16.83 mg/dL
- CHLORIDE [1]: 99.33 MEQ/L
- CHOLESTEROL [1]: 64.33 mg/dL
- CREATINE PHOSPHOKINASE [1]: 127 u/L
- CREATININE [1]: 0.55 mg/dL
- GLUCOSE [1]: 173.5 mg/dL
- PHOSPHORUS [1]: 10.08 mg/dL
- POTASSIUM [1]: 6.23 MEQ/L
- SODIUM [1]: 143.5 MEQ/L
- TOTAL BILIRUBIN [1]: 0.52 mg/dL
- TOTAL PROTEIN [1]: 6.35 G/DL
- BASOPHIL [2]: 0%
- EOSINOPHIL [2]: 0.17%
- ERYTHROCYTE COUNT [2]: 6.12 x10E6/uL
- HEMATOCRIT [2]: 37.08%
- HEMOGLOBIN [2]: 14.82 G/DL
- LEUKOCYTE COUNT [2]: 11.87 x10E3/uL
- LYMPHOCYTE [2]: 83.33%
- MEAN CORPUSCULAR HEMOGLOBIN [2]: 24.25 pg
- MEAN CORPUSCULAR HEMOGLOBIN CONCENTRATION [2]: 39.97 G/DL
- MEAN CORPUSCULAR VOLUME [2]: 60.65 fL
- MONOCYTE [2]: 1.5%
- NEUTROPHIL [2]: 15%
- PLATELET COUNT [2]: 1042.83 x10E3/uL
- ALANINE AMINOTRANSFERASE [2]: 46 u/L
- ALBUMIN [2]: 3.82 G/DL
- ALKALINE PHOSPHATASE [2]: 369.5 u/L
- ASPARTATE AMINOTRANSFERASE [2]: 65 u/L
- BLOOD UREA NITROGEN [2]: 16.33 mg/dL
- CHLORIDE [2]: 100.67 MEQ/L
- CHOLESTEROL [2]: 57.17 mg/dL
- CREATINE PHOSPHOKINASE [2]: 130 u/L
- CREATININE [2]: 0.53 mg/dL
- GLUCOSE [2]: 163.33 mg/dL
- PHOSPHORUS [2]: 9.53 mg/dL
- POTASSIUM [2]: 6.27 MEQ/L
- SODIUM [2]: 144.83 MEQ/L
- TOTAL BILIRUBIN [2]: 0.55 mg/dL
- TOTAL PROTEIN [2]: 6.32 G/DL
- BASOPHIL [3]: 0%
- EOSINOPHIL [3]: 0%
- ERYTHROCYTE COUNT [3]: 6 x10E6/uL
- HEMATOCRIT [3]: 35.93%
- HEMOGLOBIN [3]: 14.07 G/DL
- LEUKOCYTE COUNT [3]: 11.77 x10E3/uL
- LYMPHOCYTE [3]: 86.33%
- MEAN CORPUSCULAR HEMOGLOBIN [3]: 23.5 pg
- MEAN CORPUSCULAR HEMOGLOBIN CONCENTRATION [3]: 39.17 G/DL
- MEAN CORPUSCULAR VOLUME [3]: 60.07 fL
- MONOCYTE [3]: 0%
- NEUTROPHIL [3]: 13.67%
- PLATELET COUNT [3]: 1321.67 x10E3/uL
- ALANINE AMINOTRANSFERASE [3]: 33.67 u/L
- ALBUMIN [3]: 3.63 G/DL
- ALKALINE PHOSPHATASE [3]: 372.67 u/L
- ASPARTATE AMINOTRANSFERASE [3]: 57.67 u/L
- BLOOD UREA NITROGEN [3]: 11.33 mg/dL
- CHLORIDE [3]: 98.67 MEQ/L
- CHOLESTEROL [3]: 63.67 mg/dL
- CREATINE PHOSPHOKINASE [3]: 142.33 u/L
- CREATININE [3]: 0.43 mg/dL
- GLUCOSE [3]: 175.67 mg/dL
- PHOSPHORUS [3]: 12.27 mg/dL
- POTASSIUM [3]: 5.97 MEQ/L
- SODIUM [3]: 143.67 MEQ/L
- TOTAL BILIRUBIN [3]: 0.33 mg/dL
- TOTAL PROTEIN [3]: 5.8 G/DL
- BASOPHIL [4]: 0%
- EOSINOPHIL [4]: 0.67%
- ERYTHROCYTE COUNT [4]: 5.92 x10E6/uL
- HEMATOCRIT [4]: 35.83%
- HEMOGLOBIN [4]: 14.4 G/DL
- LEUKOCYTE COUNT [4]: 11.83 x10E3/uL
- LYMPHOCYTE [4]: 89.67%
- MEAN CORPUSCULAR HEMOGLOBIN [4]: 24.33 pg
- MEAN CORPUSCULAR HEMOGLOBIN CONCENTRATION [4]: 40.17 G/DL
- MEAN CORPUSCULAR VOLUME [4]: 60.63 fL
- MONOCYTE [4]: 1%
- NEUTROPHIL [4]: 8.67%
- PLATELET COUNT [4]: 1170.33 x10E3/uL
- ALANINE AMINOTRANSFERASE [4]: 33 u/L
- ALBUMIN [4]: 3.53 G/DL
- ALKALINE PHOSPHATASE [4]: 229.67 u/L
- ASPARTATE AMINOTRANSFERASE [4]: 54.67 u/L
- BLOOD UREA NITROGEN [4]: 10.33 mg/dL
- CHLORIDE [4]: 100.33 MEQ/L
- CHOLESTEROL [4]: 57.67 mg/dL
- CREATINE PHOSPHOKINASE [4]: 129.33 u/L
- CREATININE [4]: 0.47 mg/dL
- GLUCOSE [4]: 170.67 mg/dL
- PHOSPHORUS [4]: 11.13 mg/dL
- POTASSIUM [4]: 5.9 MEQ/L
- SODIUM [4]: 145.33 MEQ/L
- TOTAL BILIRUBIN [4]: 0.2 mg/dL
- TOTAL PROTEIN [4]: 5.7 G/DL
